Reference: PubChem BioAssay (NCI)
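1) Cells in 96-well plates. 2) Compound, 48 h, 5 concentrations. 3) Linear interpolation between surrounding doses. 4) Unreached endpoint = highest concentration. GI50 is the concentration that inhibits growth by half. The concentration for full growth arrest is given as TGI.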

System: MDA-MB-468 breast
Assay: DTP human tumour cell line panel, 48 h

Row | SMILES | GI50 | TGI
1 | O=C1CC(c2ccc(N3CCOCC3)cc2)(c2ccsc2)NC(=O)C1Sc1ccccc1Cl (stereo not drawn) | 86.7 µM | > 100 µM
2 | Cn1ccnc1C(=O)/C=C/c1ccc(C(=O)Nc2ccc(Cl)cc2)cc1 | 0.793 µM | 2.8 µM
3 | CC(C)(C)NC(C1=CC(C)(C)c2ccccc2C1=O)c1ccccc1 (stereo not drawn) | 0.245 µM | 1.66 µM
4 | CC[C@@H](C(=O)[C@@H](C)[C@@H](O)[C@H](C)[C@@H]1O[C@@H]([C@@H](CC)C(=O)O)CC[C@@H]1C)C1O[C@]2(C=CC(=O)[C@]3(CC[C@@](C)([C@H]4CC[C@](O)(CC)[C@H](C)O4)O3)O2)[C@H](C)C[C@@H]1C (stereo partly drawn) | 0.0857 µM | 1.96 µM
5 | COc1cc(NS(C)(=O)=O)ccc1Nc1c2ccc(Cl)cc2nc2c(OC)cccc12 | 0.136 µM | 0.484 µM
6 | O=[N+]([O-])c1ccc(Br)c([N+](=O)[O-])c1 | 1.67 µM | 3.27 µM
7 | c1ccc(Cn2cc3c(c2-c2ccccc2)CCc2cnoc2-3)cc1 | 2.06 µM | 8.02 µM
8 | Cc1nn(-c2nc3ccccc3s2)c(C)c1Oc1ccccc1O | 1.13 µM | 27.4 µM
9 | CC[C@H](C)[C@H]1NC(=O)[C@@H](N[C@](C)(O)[C@@H](N)CC(C)C)[C@@H](C)OC(=O)[C@H](Cc2ccc(OC)cc2)N(C)C(=O)[C@@H]2CCCN2C(=O)[C@H](CC(C)C)NC(=O)[C@@H](C)C(=O)[C@H](C(C)C)OC(=O)C[C@@H]1O | 0.0217 µM | 0.261 µM
10 | COc1cc(-c2nc(Nc3nc4ccccc4[nH]3)nc(N)c2C#N)cc(OC)c1OC | 1.39 µM | 26.6 µM
11 | C[C@@H]1CN(C(=O)c2ccc(NC(=O)c3cc(O[C@H](C)c4c(Cl)ccc(F)c4Cl)c(N)nn3)cc2)C[C@H](C)N1 | 2.51 µM | 9.87 µM
12 | Cn1cc(C2=C(c3cccc4ccccc34)C(=O)NC2=O)c2ccccc21 | 8.24 µM | > 25 µM
13 | COc1ccc2nc(-c3cc(-c4cc(OC)c(OC)c(OC)c4)n[nH]3)[nH]c2c1 | 0.388 µM | 4.96 µM
14 | CCOc1cccc(/C=N/NC(=O)c2ccc(Nc3ccnc(C(F)(F)F)c3)cc2)c1O | 0.349 µM | 2.96 µM
15 | COc1ccc2c(c1)C(=O)/C(=C/c1cccc(OCC(=O)Nc3nc4c(s3)CCCC4)c1)O2 | 0.188 µM | 0.353 µM
16 | Cn1nccc1Nc1nccc(-c2cc3c(s2)C(C)(C)N(CCN2CCOCC2)C3=O)n1 | 6.1 µM | > 83.5 µM
17 | CCOc1c(Br)cc(C2C(C(=O)OC)=CN(C)C=C2C(=O)OC)cc1OC | 37.7 µM | > 100 µM
18 | C=C1C(=O)O[C@H]2[C@H]1CC/C(COC(=O)CCCCC(=O)OC/C1=C/CC[C@@]3(C)O[C@H]3[C@H]3OC(=O)C(=C)[C@@H]3CC1)=C\CC[C@@]1(C)O[C@@H]21 | 1.66 µM | 5.11 µM
19 | COc1ccc(N(CC(=O)NCCC[Te]c2ccccc2)C(=O)c2ccccc2)cc1 | 4.24 µM | 17.6 µM
20 | Oc1ccc2cc(Br)ccc2c1-c1c(O)ccc2cc(Br)ccc12 | 3.62 µM | 11.7 µM
21 | O=c1c2cccc(Cl)c2sc2c(NCCCNCCO)nc3ccccc3c12 | 1.19 µM | 2.98 µM
22 | CC1=CC(=NC(=O)CBr)C=C/C1=N\S(=O)(=O)c1ccccc1 | 2.41 µM | 8.01 µM
23 | O=c1cc(-c2ccccc2)[nH]c2cc(F)c(F)cc12 | 0.384 µM | > 100 µM
24 | COc1cc(C(=O)c2ccc3c(c2)OCO3)cc(OC)c1OC | 0.586 µM | 3.32 µM
25 | CCC(C)(C)C(=O)O[C@H]1C[C@@H](C)C=C2C=C[C@H](C)[C@H](CC[C@@H]3C[C@@H](O)CC(=O)O3)[C@H]21 | 1.62 µM | 6.68 µM
26 | CC1=C[C@H]2c3c(c(O)c(O)c4oc5c(C)cccc5c(=O)c34)[C@H](c3cc(O)c(O)c4oc5c(C)cccc5c(=O)c34)[C@H]2C(C)(C)C1 | 2.62 µM | 7.86 µM
27 | C[n+]1c(/C=C\c2ccc(Cl)cc2)ccc2ccccc21 | 2.36 µM | 8.37 µM
28 | COc1ccc(-c2[nH]c3ccccc3c2C=C(C#N)C#N)cc1 | 0.557 µM | > 100 µM
29 | COc1ccccc1OCC(=O)Nc1sc2c(c1C(N)=O)CCC2 | > 100 µM | > 100 µM
